Test: Inhibition of rat brain cortex AChE using acetylthiocholine iodide as substrate incubated for 15 mins by spectrophotometry

**Q.** Which IC50 does the source give for `CC(c1cc(OC(=O)N2CCCC2)c2ncccc2c1)N1CCOCC1` (stereo not given) here?
**A.** 48.6 µM

**Q.** With `CCN(C)C(=O)Oc1cc(C(C)N(C)C)cc2cccnc12` (stereo not given) as the compound, how does the IC50 read?
**A.** 1.2 µM

**Q.** With `CC(c1cc(OC(=O)N2CCCC2)c2ncccc2c1)N(C)C` (stereo not given) as the compound, how does the IC50 read?
**A.** 28.6 µM

**Q.** For `CC(c1cc(OC(=O)N(C)C)c2ncccc2c1)N1CCOCC1` (stereo not given), which IC50 is on record?
**A.** 69.9 µM

**Q.** Which IC50 does the source give for `CCN(C)C(=O)Oc1cccc([C@H](C)N(C)C)c1` [2,3-dihydroxybutanedioic acid; 3-[(1S)-1-(dimethylamino)ethyl]phenyl N-ethyl-N-methylcarbamate] here?
**A.** 9 µM

**Q.** Which IC50 does the source give for `CCN(C)C(=O)Oc1cc(C(C)N2CCN(C)CC2)cc2cccnc12` (stereo not given) here?
**A.** 54.7 µM

**Q.** For `CCN(C)C(=O)Oc1cc(C(C)N(CC)CC)cc2cccnc12` (stereo not given), which IC50 is on record?
**A.** 41.2 µM

**Q.** With `CC(c1cc(OC(=O)N2CCCCC2)c2ncccc2c1)N(C)C` (stereo not given) as the compound, how does the IC50 read?
**A.** 20.6 µM

**Q.** With `CCN(CC)C(=O)Oc1cc(C(C)N(C)C)cc2cccnc12` (stereo not given) as the compound, how does the IC50 read?
**A.** 13.6 µM

**Q.** With `CC(c1cc(OC(=O)N2CCOCC2)c2ncccc2c1)N1CCOCC1` (stereo not given) as the compound, how does the IC50 read?
**A.** 8.3 µM

**Q.** With `CC(c1cc(OC(=O)N(C)C)c2ncccc2c1)N(C)C` (stereo not given) as the compound, how does the IC50 read?
**A.** 16.3 µM

**Q.** Which IC50 does the source give for `CC(c1cc(OC(=O)N2CCOCC2)c2ncccc2c1)N(C)C` (stereo not given) here?
**A.** 8.8 µM

**Q.** For `CCN(C)C(=O)Oc1cc(C(C)N2CCCC2)cc2cccnc12` (stereo not given), which IC50 is on record?
**A.** 18.1 µM

**Q.** Which IC50 does the source give for `CCN(C)C(=O)Oc1cc(C(C)N(C)CC)cc2cccnc12` (stereo not given) here?
**A.** 40.7 µM

**Q.** Which IC50 does the source give for `CCN(C)C(=O)Oc1cc(C(C)N2CCCCC2)cc2cccnc12` (stereo not given) here?
**A.** 29 µM

Source: BindingDB's records for doi:10.1016/j.ejmech.2019.05.051 (Zhejiang Academy of Medical Sciences, 2019)
